# Laboratory results taken from US20170251943A1, “Systems Level State Characteristics in Experimental Treatment of Disease” (priority 2014, published 2017).
# Tests used:
# [1] = system: medial forebrain bundle 6-OHDA hemilesioned rat; experiment: Levodopa-induced dyskinesia, dyskinetic symptoms in 6-OHDA hemilesioned rat; assay type: in vivo
# Description: To characterize the CNS effects of experimental treatment of symptoms in levodopa-induced dyskinesia, the most widely used model of this disease condition was employed—the medial forebrain bundle 6-OHDA hemilesioned rat. In this model, parkinsonism is induced by the injection of this neurotoxin resulting in extensive neurotoxic lesions of midbrain dopaminergic neurons projecting to the forebrain. By injecting the […] in only one of the hemispheres the other hemisphere can be used as an internal control in different recordings conditions/behavioral situations. Following a period of levodopa treatment, animals developed dyskinetic symptoms affecting the side of the body contralateral to the brain lesion (Halje et al., 2012). Thus, neuronal recordings obtained in the parkinsonian and dyskinetic condition can be compared to a healthy control condition. Rats were chronically implanted with 128 recording electrodes according to the methods described above and CNS activity patterns were recorded in a number of experiments performed in four adult female Sprague-Dawley rats.
# [2] = system: medial forebrain bundle 6-OHDA hemilesioned rat; experiment: CNS state characterization (LFP PSDs / spike trains, cortico-basal ganglia-thalamic loop) in dyskinetic 6-OHDA hemilesioned rat; assay type: in vivo
# Protocol: Power spectral densities (PSDs) are calculated with a multitaper method (Pesaran, 2008) (50%-overlapping 8-s windows, 7 tapers) implemented in Chronux 2.0 (Mitra and Bokil, 2007). To stabilize the variance and to emphasize narrowband oscillations over wideband signals, PSDs are normalized to the pink noise background according to Halje et al. (Halje et al., 2012), but with one important adaptation: Due to the complexity of the data it is not practical to manually pick frequency bands with pure pink noise in all structures and conditions to get unbiased estimates of the noise background. Instead the whole frequency axis is divided into 20 logarithmically spaced bands (1-1.3, 1.3-1.7, . . . , 151.3-200 Hz) and the median power of each band is used for the fitting of the pink noise power curve S(f)=A/f^B. The pink noise normalization allows us to describe deviations from the pink noise floor in terms of the unit dBpink. As a final step, an average spectrogram is calculated for each structure, based on the spectrograms for each individual local bipolar LFP time series.
# Offline spike sorting can be performed with commercially available software to obtain spike trains of individual neurons, for example Offline Sorter by Plexon Inc. Standard spike train statistics like average firing rate and coefficient of variation is then calculated and used as features in the state-space analysis.
# elements, where each element is a measured variable. Typically, there are a couple of thousand variables in such a state description and it is necessary to reduce the dimensionality before it is practical to make further state characterizations. […]
# To characterize the CNS effects of experimental treatment of symptoms in levodopa-induced dyskinesia, the most widely used model of this disease condition was employed—the medial forebrain bundle 6-OHDA hemilesioned rat. […] Rats were chronically implanted with 128 recording electrodes according to the methods described above and CNS activity patterns were recorded in a number of experiments performed in four adult female Sprague-Dawley rats. […]
# rats [3] = experiment: Behavioral changes in rats treated with psychosis-inducing drugs; assay type: in vivo, rat; conditions: 10-50 min after injection
# rats [4] = experiment: CNS state characterization (LFP PSDs, diencephalic/telencephalic structures) in pharmacological psychosis-like states; assay type: in vivo, rat; conditions: Hippocampus, Nucleus Accumbens, Thalamus; pink noise normalized, FIG. 6
# Protocol: Power spectral densities (PSDs) are calculated with a multitaper method (Pesaran, 2008) (50%-overlapping 8-s windows, 7 tapers) implemented in Chronux 2.0 (Mitra and Bokil, 2007). To stabilize the variance and to emphasize narrowband oscillations over wideband signals, PSDs are normalized to the pink noise background according to Halje et al. (Halje et al., 2012), but with one important adaptation: Due to the complexity of the data it is not practical to manually pick frequency bands with pure pink noise in all structures and conditions to get unbiased estimates of the noise background. […] As a final step, an average spectrogram is calculated for each structure, based on the spectrograms for each individual local bipolar LFP time series. […]
# For this purpose, a number of diencephalic and telencephalic structures were recorded in parallel including: hippocampus [corresponding to anterior hippocampus in humans], nucleus accumbens [core and shell], medial prefrontal cortex and anterior gyrus cinguli (adapted to rodent anatomy), the mediodorsal nucleus and the medial geniculate nucleus in thalamus.
smiles,measurement,setting,value
CCCN(CCC)C1CCc2cccc(O)c2C1 (stereo not shown) [8-OH-DPAT],effect on dyskinetic symptoms,"[1]; 1 mg/kg and 0.4 mg/kg i.p. at the time point of peak dyskinesia, two experiments",effectively suppress dyskinetic symptoms
same,shift of CNS state in state space,"[2]; dyskinetic rat, state spaces from spike trains and LFP PSDs, FIGS. 4 and 5",primarily shifted the dyskinetic state back towards the parkinsonian state
CNC1(c2ccccc2Cl)CCCCC1=O (stereo not shown) [Ketamine],behavioral change (locomotion),rats [3],increased locomotion
"CCN(CC)C(=O)[C@@H]1C=C2c3cccc4[nH]cc(c34)C[C@H]2N(C)C1 [LSD, lysergic acid diethylamide]",LFP power spectra of the drug-induced psychosis-like state,rats [4],high-frequency narrow band oscillation in n. Accumbens
COc1ccccc1N1CCN(CCN(C(=O)C2CCCCC2)c2ccccn2)CC1 [WAY100635],reversal of the anti-dyskinetic effect of the 5-HT1A agonist 8-OH-DPAT,[1]; given after 8-OH-DPAT in dyskinetic rat,fully reversed
same,reversal of 8-OH-DPAT effect on CNS state (LFP power spectral densities),"[2]; dyskinetic+8-OH-DPAT rat, LFP PSDs in eight structures, FIG. 4",reversed the effect of 8-OH-DPAT inducing a state that closely resembles the initial dyskinetic state
same,reversal of 8-OH-DPAT effect on CNS state (relative firing rates of neurons),"[2]; dyskinetic+8-OH-DPAT rat, firing rates in eight structures of lesioned hemisphere, FIG. 5",reversed the effect of 8-OH-DPAT to a state closely resembling the initial dyskinetic state
